Data from article PMC5618429, “Kempopeptin C, a Novel Marine-Derived Serine Protease Inhibitor Targeting Invasive Breast Cancer” (Marine Drugs, 2017).

Columns and labels:
MDA-MB-231 cells = test: Transwell migration assay; format: cell-based; details: Homo sapiens, MDA-MB-231, 48 h
Experimental: The significance of our compounds in inhibiting matriptase and targeting its downstream cellular substrates was evaluated by examining the effect of kempopeptin C (3) on the migration of highly invasive breast cancer cells. The effect on migration was investigated by treating MDA-MB-231 cells with different concentrations of the test compound or solvent control for 48 h. Following 48 h, migrated cells were stained with crystal violet, and the number was counted under the microscope. […] To rule out that proteasome inhibition might be responsible for the migration inhibitory activity, the effect of kempopeptin C (3) on the trypsin-like activity of proteasomes was tested in vitro.
Figure 7 The effect of kempopeptin C (3) on the migration of MDA-MB-231. MDA-MB-231 were incubated for 48 h in the presence of different concentrations (0, 10 or 20 µM) of 3 and the effect was compared to the solvent control. The graph represents the number of migrated cells in each treatment group. The asterisks denote the significance of p ≤ 0.01 relative to the solvent control using the two-tailed unpaired t-test. Data are presented as the mean ± SD, n = 3.
The migration assays were performed using BD falcon cell culture inserts (353097; PET membrane, 8-µm pore size; Fisher Scientific; Waltham, MA, USA) in 24-well plates. […]

[1] = molecular target: T1, 20S proteasome (trypsin-like activity) (Homo sapiens, UniProt Q99436); test: Proteasome Glo Trypsin-Like Activity Assay; format: biochemical; details: 10 and 1 µM, in vitro
T1 construct: purchased Enzo Life Sciences
Experimental: The inhibition of proteasomes was assessed using the Proteasome Glo Trypsin-Like Activity Assay from Promega according to the manufacturer’s instructions. Briefly, in white 96-well plates, kempopeptin C (3) (10 and 1 µM final concentration) was incubated at room temperature with 0.1 µg 20S proteasome (Enzo Life Sciences, Farmingdale, NY, USA) for 10 min to allow enzyme inhibitor interactions. Following the incubation period, the detection reagent containing Z-LRR-aminoluciferin substrate was added. The plate was gently mixed at 400 rpm for 30 s and then incubated at room temperature for 10 min. The luminescence signal was then measured using the EnVision plate reader (PerkinElmer, Waltham, MA, USA). Epoxomicin was used as a positive control.
Effect of kempopeptin C on the trypsin- like activity of
Kempopeptin C (10 µM) Kempopeptin C (1 µM) Epoxomicin (5 µM)
Figure S2. Effect of kempopeptin C (3) on the proteasome activity in vitro assessed using proteasome Glo trypsin- like
activity assay (Promega).

SMILES: CCCC(=O)NC(C(=O)NC1C(=O)NC(CCCCN)C(=O)NC2CCC(O)N(C2=O)C(C(C)CC)C(=O)N(C)C(Cc2ccc(OC)c(Cl)c2)C(=O)NC(C(C)C)C(=O)OC1C)C(C)C (stereo not drawn) [Kempopeptin C, kempopeptin C]
- inhibition at 10 µM (MDA-MB-231 cells; MDA-MB-231, 10 µM): 37%
- inhibition at 20 µM (MDA-MB-231 cells; MDA-MB-231, 20 µM): 60%
- Effect on trypsin-like activity of proteasomes [1]: did not inhibit the trypsin-like activity of proteasomes
